Measured values reported in publication PMC6390583 (BMC rheumatology, 2018).

Columns and labels:
[1] = test system: adjuvant induced arthritis; experiment: Rat adjuvant-induced arthritis (AIA) model; assay type: in vivo
[2] = test system: IL-13 induced STAT6 phosphorylation; experiment: IL-13 induced STAT6 phosphorylation in HEKa; assay type: cell-based; details: Homo sapiens, JAK 1/TYK2, read-out: Human IC50, IL-13 pSTAT6
Procedure: (§1) IL-6 and Oncostatin M (OSM) induced STAT3 phosphorylation was assessed in the human erythroleukemia TF-1 cell line. Erythropoietin-induced STAT5 phosphorylation was assessed in the human UT-7 cell line. IL-2 and IL-15 induced STAT5 phosphorylation was assessed in activated human T-cells. Detection of phosphorylated STATs was accomplished with the SureFire pSTAT5 or pSTAT3 Assay kit (Perkin Elmer, Hopkinton, MA) per standard manufacturer’s protocol, with the exception of an overnight incubation following addition of donor beads before detection on the EnVision (Perkin Elmer, Hopkinton, MA). IFNγ induced STAT1 phosphorylation was assessed in the CD14+ monocyte population in human PBMC by flow cytometry. CD14 BV421 was purchased from BD Biosciences (San Jose, CA). STAT1 PE ([…]) was purchased from ThermoFisher Scientific (Waltham, MA). IL-4 and IL-13 induced STAT6 phosphorylation and IL-31 induced STAT3 phosphorylation were assessed in adult human epithelial keratinocytes (HEKa, ThermoFisher Scientific, Waltham, MA) by flow cytometry. STAT6 PE (pY641) and STAT3 PE (Y705) were purchased from BD Biosciences (San Jose, CA).

reticulocyte deployment = experiment: Epo induced reticulocyte deployment assay; assay type: in vivo; details: rat, Epo challenge, highest concentration tested
Procedure: Naïve male Lewis rats were injected intravenously with either PBS or 1000 IU of epoetin α (Procrit®, Janssen Products, LP, Horsham, PA) for two consecutive days. Reticulocytes were measured on day 4 by flow cytometry using thiozole orange as a dye as previously described.

IL-7 driven pSTAT5 = experiment: Clinical ex vivo IL-7 stimulation of whole blood, pSTAT5; assay type: in vivo; details: healthy volunteers, 12 mg of upadacitinib, 1 h post dose
Procedure: (§2) Recombinant human IL-6 (400 ng/ml), or IL-7 (400 ng/ml), (R&D Systems, Minneapolis, MN) was added to blood and incubated for 10 min at 37°C. Surface antibodies were added (CD14-APC, CD3-fluorescein isothiocyanate [FITC]; BD Biosciences, San Jose, CA) and incubated on ice for an additional 20 min. Samples were lysed (Lyse/Fix, BD Biosciences, San Jose, CA) and incubated for 10 min at 37°C. Samples were washed and stored at − 70°C. For intracellular staining, samples were thawed, washed, and resuspended in BD Perm buffer III (BD Biosciences, San Jose, CA) on ice for 30 min. Samples were washed and stained with pSTAT5-PE or pSTAT3-PE (BD Biosciences, San Jose, CA) for 60 min at room temperature and then analyzed immediately on a FACSCalibur. Geometric means were determined using FlowJo analysis software.

JAK1 = JAK1 (Homo sapiens, UniProt P23458); experiment: HTRF activity assay, recombinant JAK1 catalytic domain; details: JAK1 IC50 at varying ATP (0.01-1 mM), Cheng-Prusoff; data not shown
[3] = test system: IL-4 induced STAT6 phosphorylation; experiment: IL-4 induced STAT6 phosphorylation in HEKa; assay type: cell-based; details: Homo sapiens, JAK 1/3, read-out: Human IC50, IL-4 pSTAT6
Procedure: as §1

[4] = test system: IFNγ induced STAT1 phosphorylation; experiment: IFNγ induced STAT1 phosphorylation in CD14+ monocytes of PBMC; assay type: cell-based; details: Homo sapiens, Monocyte, JAK 1/2, read-out: Human IC50, IFNγ pSTAT1
Procedure: as §1

Plk3 = Plk3 (Homo sapiens, UniProt Q9H4B4); experiment: trFRET binding kinome profiling
Procedure: (§3) JAK activity assays using isolated kinase domains in the presence of 0.1 mM ATP and trFRET kinome profiling were conducted as described previously (17).

GRK5 = GRK5 (Homo sapiens, UniProt P34947); experiment: trFRET binding kinome profiling
Procedure: as §3

Pim2 = Pim2 (Homo sapiens, UniProt Q9P1W9); experiment: trFRET binding kinome profiling
Procedure: as §3

Aurora 1 = Aurora 1 (Homo sapiens, UniProt Q96GD4); experiment: trFRET binding kinome profiling
Procedure: as §3

MEK2 = MEK2 (Homo sapiens, UniProt P36507); experiment: trFRET binding kinome profiling
Procedure: as §3

Syk = Syk (Homo sapiens, UniProt P43405); experiment: trFRET binding kinome profiling
Procedure: as §3

DYRK1A = DYRK1A (Homo sapiens, UniProt Q13627); experiment: trFRET binding kinome profiling
Procedure: as §3

Gsk3a = Gsk3a (Homo sapiens, UniProt P49840); experiment: trFRET binding kinome profiling
Procedure: as §3

IKKE = IKKE (Homo sapiens, UniProt Q14164); experiment: trFRET binding kinome profiling
Procedure: as §3

PDGFRB = PDGFRB (Homo sapiens, UniProt P09619); experiment: trFRET binding kinome profiling
Procedure: as §3

Prkcn = Prkcn (Homo sapiens, UniProt O94806); experiment: trFRET binding kinome profiling
Procedure: as §3

InsR = InsR (Homo sapiens, UniProt P06213); experiment: trFRET binding kinome profiling
Procedure: as §3

TTK = TTK (Homo sapiens, UniProt P33981); experiment: trFRET binding kinome profiling
Procedure: as §3

IGF1R = IGF1R (Homo sapiens, UniProt P08069); experiment: trFRET binding kinome profiling
Procedure: as §3

Fyn = Fyn (Homo sapiens, UniProt P06241); experiment: trFRET binding kinome profiling
Procedure: as §3

Nek2 = Nek2 (Homo sapiens, UniProt P51955); experiment: trFRET binding kinome profiling
Procedure: as §3

[5] = test system: IL-31 induced STAT3 phosphorylation; experiment: IL-31 induced STAT3 phosphorylation in HEKa; assay type: cell-based; details: Homo sapiens, JAK 1/2, read-out: Human IC50, IL-31 pSTAT3
Procedure: as §1

IL-6 induced pSTAT3 = experiment: Clinical ex vivo IL-6 stimulation of whole blood, pSTAT3; assay type: in vivo, healthy volunteers
Procedure: as §2

[6] = test system: Oncostatin M (OSM) induced STAT3 phosphorylation; experiment: Oncostatin M induced STAT3 phosphorylation in TF-1 cells; assay type: cell-based; details: Homo sapiens, JAK 1, N = 2, read-out: Human IC50, OSM pSTAT3
Procedure: as §1

Sequence of Fyn (P06241 whole entry, species assumed): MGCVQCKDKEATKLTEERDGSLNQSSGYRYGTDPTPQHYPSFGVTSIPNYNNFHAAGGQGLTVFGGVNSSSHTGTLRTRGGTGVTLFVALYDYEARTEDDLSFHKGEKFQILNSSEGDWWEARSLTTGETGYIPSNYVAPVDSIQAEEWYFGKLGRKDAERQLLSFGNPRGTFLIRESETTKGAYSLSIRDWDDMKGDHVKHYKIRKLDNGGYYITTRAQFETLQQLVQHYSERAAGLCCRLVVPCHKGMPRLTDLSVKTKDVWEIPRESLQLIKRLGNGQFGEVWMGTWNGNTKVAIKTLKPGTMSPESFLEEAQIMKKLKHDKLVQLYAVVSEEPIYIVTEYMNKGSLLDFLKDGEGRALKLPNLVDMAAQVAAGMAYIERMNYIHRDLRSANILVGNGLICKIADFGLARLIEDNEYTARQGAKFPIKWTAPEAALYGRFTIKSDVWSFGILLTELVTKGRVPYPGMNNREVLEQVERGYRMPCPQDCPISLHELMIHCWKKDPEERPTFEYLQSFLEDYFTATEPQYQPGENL
Sequence of JAK1 (P23458 845-1142): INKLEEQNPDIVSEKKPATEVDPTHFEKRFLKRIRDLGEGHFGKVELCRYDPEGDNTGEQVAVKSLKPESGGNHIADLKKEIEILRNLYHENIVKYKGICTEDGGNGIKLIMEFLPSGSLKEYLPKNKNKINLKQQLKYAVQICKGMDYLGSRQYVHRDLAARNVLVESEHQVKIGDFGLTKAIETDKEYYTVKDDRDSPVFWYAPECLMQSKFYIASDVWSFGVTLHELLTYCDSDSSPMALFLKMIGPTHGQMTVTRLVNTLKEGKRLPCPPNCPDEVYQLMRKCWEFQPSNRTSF
Sequence of PDGFRB (P09619 33-1106, species assumed): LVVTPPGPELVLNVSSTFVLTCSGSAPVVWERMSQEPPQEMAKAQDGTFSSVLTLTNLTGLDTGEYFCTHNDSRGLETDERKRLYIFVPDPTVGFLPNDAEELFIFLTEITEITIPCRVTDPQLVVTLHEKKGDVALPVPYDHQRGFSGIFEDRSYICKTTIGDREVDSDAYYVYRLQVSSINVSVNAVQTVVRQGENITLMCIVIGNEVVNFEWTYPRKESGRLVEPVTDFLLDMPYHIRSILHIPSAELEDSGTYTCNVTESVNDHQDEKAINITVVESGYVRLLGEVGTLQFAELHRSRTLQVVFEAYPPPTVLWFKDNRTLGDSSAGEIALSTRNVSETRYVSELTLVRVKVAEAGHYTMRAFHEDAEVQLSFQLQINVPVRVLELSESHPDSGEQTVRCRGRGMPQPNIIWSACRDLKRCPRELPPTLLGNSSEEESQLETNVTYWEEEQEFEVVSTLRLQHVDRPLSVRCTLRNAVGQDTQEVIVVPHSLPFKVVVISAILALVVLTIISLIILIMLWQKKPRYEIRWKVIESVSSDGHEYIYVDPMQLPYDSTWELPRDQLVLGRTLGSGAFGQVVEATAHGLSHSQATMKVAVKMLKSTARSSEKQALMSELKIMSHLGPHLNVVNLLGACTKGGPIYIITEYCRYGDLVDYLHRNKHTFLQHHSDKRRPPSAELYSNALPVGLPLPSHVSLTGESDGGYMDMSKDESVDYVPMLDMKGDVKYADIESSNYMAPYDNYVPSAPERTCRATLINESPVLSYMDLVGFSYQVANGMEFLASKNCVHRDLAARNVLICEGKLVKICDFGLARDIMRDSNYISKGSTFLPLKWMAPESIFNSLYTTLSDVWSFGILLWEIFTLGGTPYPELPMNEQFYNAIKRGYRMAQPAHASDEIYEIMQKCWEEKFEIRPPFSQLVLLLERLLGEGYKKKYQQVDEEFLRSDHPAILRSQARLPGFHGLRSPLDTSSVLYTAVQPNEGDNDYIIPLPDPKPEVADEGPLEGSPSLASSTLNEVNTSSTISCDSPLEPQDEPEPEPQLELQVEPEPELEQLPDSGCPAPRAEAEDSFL
Sequence of TTK (P33981 whole entry, species assumed): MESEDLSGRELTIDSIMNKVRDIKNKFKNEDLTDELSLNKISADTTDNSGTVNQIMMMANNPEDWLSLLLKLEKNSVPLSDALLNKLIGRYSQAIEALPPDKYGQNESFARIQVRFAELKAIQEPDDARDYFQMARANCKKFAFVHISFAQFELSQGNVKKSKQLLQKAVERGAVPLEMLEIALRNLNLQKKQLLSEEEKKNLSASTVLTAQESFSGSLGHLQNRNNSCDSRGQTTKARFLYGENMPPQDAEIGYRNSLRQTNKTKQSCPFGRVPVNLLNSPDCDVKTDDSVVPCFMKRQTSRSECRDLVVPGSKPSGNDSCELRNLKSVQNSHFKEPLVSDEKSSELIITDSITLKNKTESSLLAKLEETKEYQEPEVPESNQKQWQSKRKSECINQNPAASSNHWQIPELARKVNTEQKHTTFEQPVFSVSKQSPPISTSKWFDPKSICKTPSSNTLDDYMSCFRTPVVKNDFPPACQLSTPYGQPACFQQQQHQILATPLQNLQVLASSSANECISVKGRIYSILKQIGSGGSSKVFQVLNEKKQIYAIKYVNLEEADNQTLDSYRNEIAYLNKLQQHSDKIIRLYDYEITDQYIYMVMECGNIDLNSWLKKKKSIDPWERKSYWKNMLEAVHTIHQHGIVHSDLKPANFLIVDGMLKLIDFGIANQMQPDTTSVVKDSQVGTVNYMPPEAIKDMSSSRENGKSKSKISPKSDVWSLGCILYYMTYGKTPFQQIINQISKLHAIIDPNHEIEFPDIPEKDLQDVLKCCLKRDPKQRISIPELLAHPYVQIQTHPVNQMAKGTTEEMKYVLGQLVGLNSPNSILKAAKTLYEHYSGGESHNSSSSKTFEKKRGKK
Sequence of Gsk3a (P49840 whole entry, species assumed): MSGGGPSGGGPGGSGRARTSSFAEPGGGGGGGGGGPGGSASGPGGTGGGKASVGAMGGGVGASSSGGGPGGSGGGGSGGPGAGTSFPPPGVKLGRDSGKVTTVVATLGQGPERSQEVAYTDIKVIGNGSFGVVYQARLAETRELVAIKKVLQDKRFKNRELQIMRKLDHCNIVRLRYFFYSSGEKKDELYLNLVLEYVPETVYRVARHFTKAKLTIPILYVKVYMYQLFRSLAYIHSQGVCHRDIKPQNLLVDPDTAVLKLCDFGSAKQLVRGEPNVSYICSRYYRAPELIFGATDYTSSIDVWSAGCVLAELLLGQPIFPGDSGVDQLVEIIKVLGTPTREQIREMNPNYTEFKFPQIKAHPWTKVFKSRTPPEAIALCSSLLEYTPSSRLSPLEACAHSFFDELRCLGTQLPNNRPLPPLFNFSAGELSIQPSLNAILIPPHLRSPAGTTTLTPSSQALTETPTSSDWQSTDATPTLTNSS
Sequence of Pim2 (Q9P1W9 whole entry, species assumed): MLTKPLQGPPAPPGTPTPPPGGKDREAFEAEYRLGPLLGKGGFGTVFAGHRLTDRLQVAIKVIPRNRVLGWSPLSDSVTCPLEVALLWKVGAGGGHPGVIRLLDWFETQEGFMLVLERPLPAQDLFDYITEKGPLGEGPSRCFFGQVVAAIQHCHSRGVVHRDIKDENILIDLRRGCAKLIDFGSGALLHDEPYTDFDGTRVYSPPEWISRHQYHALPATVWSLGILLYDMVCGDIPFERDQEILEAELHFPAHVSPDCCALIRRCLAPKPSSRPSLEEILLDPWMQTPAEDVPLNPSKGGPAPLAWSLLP
Sequence of Prkcn (O94806 whole entry, species assumed): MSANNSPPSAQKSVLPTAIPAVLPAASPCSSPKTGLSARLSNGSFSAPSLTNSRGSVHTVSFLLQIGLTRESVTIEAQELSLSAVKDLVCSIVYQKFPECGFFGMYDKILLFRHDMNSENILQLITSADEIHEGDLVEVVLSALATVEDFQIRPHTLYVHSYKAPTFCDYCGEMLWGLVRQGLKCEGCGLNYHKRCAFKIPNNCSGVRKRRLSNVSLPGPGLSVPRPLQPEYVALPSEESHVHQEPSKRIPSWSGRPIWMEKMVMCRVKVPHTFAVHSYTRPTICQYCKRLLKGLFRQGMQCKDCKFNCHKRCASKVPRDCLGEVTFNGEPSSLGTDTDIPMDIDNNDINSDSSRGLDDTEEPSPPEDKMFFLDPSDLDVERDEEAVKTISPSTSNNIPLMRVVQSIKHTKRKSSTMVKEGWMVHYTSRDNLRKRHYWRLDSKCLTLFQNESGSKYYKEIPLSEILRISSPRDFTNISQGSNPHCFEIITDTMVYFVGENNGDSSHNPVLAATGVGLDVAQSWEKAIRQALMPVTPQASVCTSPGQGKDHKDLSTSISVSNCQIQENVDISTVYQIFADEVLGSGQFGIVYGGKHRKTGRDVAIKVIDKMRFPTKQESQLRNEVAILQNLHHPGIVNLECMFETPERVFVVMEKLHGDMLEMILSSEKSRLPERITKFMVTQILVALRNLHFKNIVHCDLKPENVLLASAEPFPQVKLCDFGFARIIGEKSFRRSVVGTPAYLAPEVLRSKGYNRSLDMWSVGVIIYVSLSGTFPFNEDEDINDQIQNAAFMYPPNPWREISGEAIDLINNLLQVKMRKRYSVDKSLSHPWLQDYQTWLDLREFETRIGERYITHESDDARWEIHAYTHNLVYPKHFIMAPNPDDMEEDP
Sequence of Nek2 (P51955 whole entry, species assumed): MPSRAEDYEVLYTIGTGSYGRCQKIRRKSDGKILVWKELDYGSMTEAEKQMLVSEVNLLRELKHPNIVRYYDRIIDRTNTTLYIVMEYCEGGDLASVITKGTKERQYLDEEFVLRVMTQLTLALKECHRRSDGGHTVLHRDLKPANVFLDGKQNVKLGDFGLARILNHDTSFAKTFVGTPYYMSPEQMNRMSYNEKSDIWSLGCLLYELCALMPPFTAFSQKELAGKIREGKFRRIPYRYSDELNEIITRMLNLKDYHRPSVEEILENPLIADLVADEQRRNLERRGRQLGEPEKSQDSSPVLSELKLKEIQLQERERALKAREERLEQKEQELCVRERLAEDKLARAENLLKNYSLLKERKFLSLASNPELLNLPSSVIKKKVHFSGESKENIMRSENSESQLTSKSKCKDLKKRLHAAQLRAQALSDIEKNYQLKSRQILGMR

**Q.** `CC[C@@H]1CN(C(=O)NCC(F)(F)F)C[C@@H]1c1cnc2cnc3[nH]ccc3n12` [upadacitinib, (3S,4R)-3-ethyl-4-(3H-imidazo [1,2-a]pyrrolo [2,3-e]pyrazin-8-yl)-N-(2,2,2-trifluoroethyl) pyrrolidine-1-carboxamide] was tested. Which Histological endpoints ([1]; 3 and 10 mg/kg dose groups, data not shown) did it give?
**A.** improved synovial hypertrophy, inflammation, cartilage damage and bone erosion

**Q.** And the “Reduction in paw swelling at clinical AUC exposures” value ([1]; exposures for 6 mg BID and 12 mg BID clinical doses of upadacitinib)?
**A.** > 90%

**Q.** What about the “AUC60, AUC0-12 drug concentration necessary to achieve 60% inhibition of paw swelling” value ([1]; oral BID) of the same compound?
**A.** 83 ng·h/mL

**Q.** And the “Effect on paw swelling” value ([1]; oral, dosed from day 7)?
**A.** dose and exposure dependent reductions in paw swelling

**Q.** And the IC50 [2]?
**A.** 0.004 µM

**Q.** What about the “Maximal inhibition of reticulocyte deployment” value (reticulocyte deployment) of the same compound?
**A.** ~ 40%

**Q.** And the “Inhibition of IL-7 driven pSTAT5” value (IL-7 driven pSTAT5)?
**A.** ~ 70%

**Q.** What about the “Mechanism of JAK1 inhibition” value (JAK1) of the same compound?
**A.** ATP competitive inhibitor

**Q.** And the IC50 [3]?
**A.** 0.002 µM

**Q.** What about the IC50 [4] of the same compound?
**A.** 0.019 µM

**Q.** What about the IC50 (Plk3) of the same compound?
**A.** > 10 µM

**Q.** And the IC50 (GRK5)?
**A.** > 7.9 µM

**Q.** And the IC50 (Pim2)?
**A.** > 10 µM

**Q.** What about the IC50 (Aurora 1) of the same compound?
**A.** > 5.5 µM

**Q.** What about the IC50 (MEK2) of the same compound?
**A.** > 10 µM

**Q.** And the IC50 (Syk)?
**A.** > 10 µM

**Q.** What about the IC50 (DYRK1A) of the same compound?
**A.** > 10 µM

**Q.** And the IC50 (Gsk3a)?
**A.** > 10 µM

**Q.** And the IC50 (IKKE)?
**A.** > 10 µM

**Q.** What about the IC50 (PDGFRB) of the same compound?
**A.** > 10 µM

**Q.** What about the IC50 (Prkcn) of the same compound?
**A.** > 10 µM

**Q.** What about the IC50 (InsR) of the same compound?
**A.** > 10 µM

**Q.** What about the IC50 (TTK) of the same compound?
**A.** > 10 µM

**Q.** And the IC50 (IGF1R)?
**A.** > 10 µM

**Q.** And the IC50 (Fyn)?
**A.** > 10 µM

**Q.** What about the IC50 (Nek2) of the same compound?
**A.** > 10 µM

**Q.** What about the IC50 [5] of the same compound?
**A.** 0.003 µM

**Q.** What about the inhibition at 3 mg (IL-6 induced pSTAT3; Homo sapiens, 1 h) of the same compound?
**A.** ~50%

**Q.** And the “Dose reaching maximal pSTAT3 inhibition” value (IL-6 induced pSTAT3; healthy volunteers, IL-6 stimulation, 1 h post dose)?
**A.** 36 mg

**Q.** What about the IC50 [6] of the same compound?
**A.** 0.0016 µM
